According to patent publication US20240041767A1, “Mitochondria-Enriched Extracellular Vesicles” (Duquesne University of the Holy Spirit, priority 2022, published 2024):

How the values were obtained:
[1] = system: recipient hCMEC/D3 BECs; test: Uptake of MitoT-red-EVs into recipient hCMEC/D3 cells, flow cytometry; assay type: cell-based, human; conditions: cells pre-stained with 100 nM MitoT-red for 30 min
Experimental: Uptake of Mitotracker-labeled naïve and mito-EVs into the recipient hCMEC/D3 cells (isolation of mitochondria-labeled naïve and mito-EVs) hCMEC/D3 BECs and NIH/3T3 fibroblasts were cultured in T175 flasks to confluency. The complete growth medium was removed and cells were washed with 1× PBS. Cells were treated with 100 nM MitoTracker deep red (MitoT-red) diluted in serum-free medium for 30 min in a 37° C. humidified incubator, and following that, the cells were washed with 1× PBS. For naïve EVs, cells were incubated with serum-free medium for 48 h, whereas for mito-EVs, cells were incubated with serum-free medium containing 10 μM Resveratrol for 48 h. Post-incubation, the conditioned medium was collected into polystyrene centrifuge tubes. […] The EV protein content in MitoT-red-sEVs and MitoT-red-m/lEVs were determined using MicroBCA assay, and the samples were stored at −80° C. until further use.
Uptake of hCMEC/D3 BEC- and NIH/3T3 fibroblast-derived MitoT-red-EVs into recipient hCMEC/D3 cells using flow cytometry hCMEC/D3 BECs (P31) were seeded in a 48-well plate at a seeding density of 50,000 cells/well in complete growth medium and cultured for 48 hours in a humidified incubator at 37° C. […] For each sample, an aliquot of a 100 μL cell suspension was analyzed on an Attune N×T Flow cytometer and 10,000 events were recorded in FSC vs. SSC plots. […]

[2] = system: PGC-1α; test: PGC-1α protein expression by western blotting in Resveratrol-treated NIH/3T3 fibroblasts; assay type: cell-based, mouse; conditions: NIH/3T3 cells, 24 h, vs untreated cells
Experimental: (§1) Measurement of PGC-1α expression using western blotting (Activation of hCMEC/D3 brain endothelial cells and NIH/3T3 fibroblasts with Resveratrol and preparation of cell lysate for western blotting) hCMEC/D3 brain endothelial cells (BECs) and NIH/3T3 fibroblasts were seeded in a 24-well plate at 100,000 cells/well-seeding density in complete growth medium and cultured for 48 hours in a humidified incubator at 37° C. The cells were treated with different concentrations of Resveratrol ranging from 0.1 to 50 μM in complete growth medium for 24 h. Untreated cells were incubated with a complete growth medium and used as the control for the treatment groups. Post-treatment, the cells were washed with 1× PBS, and the cell suspension was collected in centrifuge tubes. The cell suspension was centrifuged at 300×g for 10 min at 4° C., washed with 1× PBS, and the cell pellet was lysed with 1× RIPA buffer containing 3 μg/mL aprotinin. The total protein concentration in the cell lysates was measured using a BCA assay.
(§2) Detection of PGC1α protein expression in hCMEC/D3 BECs and NIH/3T3 fibroblasts using western blotting A 40 μg cell lysate of untreated and Resveratrol treated hCMEC/D3 BECs and NIH/3T3 fibroblasts were mixed with 4× laemmli buffer and distilled water. The mixture was heated at 95° C. for 5 min using a heating block (Thermo Scientific). Denatured samples and standard molecular weight markers (ladder, 250-25 kD) were separated on a 4-10% gradient sodium dodecyl sulfate polyacrylamide gel at 120 V for 90 min using a PowerPac Basic setup (Bio-Rad Laboratories, Inc.). The gel was washed with deionized water for 30 min, and the proteins were transferred from the gel to a 0.45 μm nitrocellulose membrane using a transfer assembly (Bio-Rad Laboratories, Inc.) at 75 V and 300 mA for 90 min. Following that, the membrane was washed with tris-buffered saline pH 7.4 containing 1% tween 20 (T-TBS) for 45 min and blocked with Intercept blocking buffer (Li-COR Inc., Lincoln, NE) for an hour at room temperature. […]

[3] = system: PGC-1α; test: PGC-1α protein expression by western blotting in Resveratrol-treated hCMEC/D3 BECs; assay type: cell-based, human; conditions: hCMEC/D3 cells
Experimental: as §1, §2

C[N+]1=C(/C=C/C=C/C=C2\N(Cc3ccc(CCl)cc3)c3ccccc3C2(C)C)C(C)(C)c2ccccc21.[Cl-] [MitoT-red]
MitoT+ve cells, positive control [1]: about 77%

Oc1ccc(C=Cc2cc(O)cc(O)c2)cc1 [Resveratrol]
normalized PGC-1α expression ([2]; 10 μM Resveratrol): statistically significant (p<0.01) increase | PGC-1α expression ([2]; 50 μM Resveratrol): considerable (p=0.07) decrease | normalized PGC-1α expression (densitometry) ([2]; Resveratrol 0.1 to 50 μM): concentration-dependent increase in PGC-1α expression | PGC-1α and GAPDH protein expression ([3]; Resveratrol 10 μM to 50 μM, 24 h): gradual and considerable decrease | PGC-1α protein band densities ([3]; Resveratrol 0.1 and 1 μM, 24 h, vs untreated cells): slight increase | increase in normalized PGC-1α protein expression ([3]; Resveratrol up to 1 μM, vs untreated cells): 5%
